Experimental data from patent US8877748B2, “Heterocyclic fused anthraquinone derivatives, manufacturing method and pharmaceutical composition using thereof” (National Defense Medical Center, priority 2012, dated 2014).

Assays:
NCI-H23 = assay: NCI one-dose screening, non-small cell lung cancer NCI-H23; format: cell-based, human; conditions: 10 μM
TK-10 = assay: NCI one-dose screening, renal cancer TK-10; format: cell-based, human; conditions: 10 μM
M14 = assay: NCI one-dose screening, melanoma M14; format: cell-based, human; conditions: 10 μM
UO-31 = assay: NCI one-dose screening, renal cancer UO-31; format: cell-based, human; conditions: 10 μM
CAKI-1 = assay: NCI one-dose screening, renal cancer CAKI-1; format: cell-based, human; conditions: 10 μM
NCI-H522 = assay: NCI one-dose screening, non-small cell lung cancer NCI-H522; format: cell-based, human; conditions: 10 μM
HOP-92 = assay: NCI one-dose screening, non-small cell lung cancer HOP-92; format: cell-based, human; conditions: 10 μM
MALME-3M = assay: NCI one-dose screening, melanoma MALME-3M; format: cell-based, human; conditions: 10 μM
RXF, 393 = assay: NCI one-dose screening, renal cancer RXF, 393; format: cell-based, human; conditions: 10 μM
SN12C = assay: NCI one-dose screening, renal cancer SN12C; format: cell-based, human; conditions: 10 μM
SK-MEL-5 = assay: NCI one-dose screening, melanoma SK-MEL-5; format: cell-based, human; conditions: 10 μM
HCT-116 = assay: NCI one-dose screening, colon cancer HCT-116; format: cell-based, human; conditions: 10 μM
MDA, -MB-435 = assay: NCI one-dose screening, breast cancer MDA, -MB-435; format: cell-based, human; conditions: 10 μM; listed under Melanoma
KM12 = assay: NCI one-dose screening, colon cancer KM12; format: cell-based, human; conditions: 10 μM
EKVX = assay: NCI one-dose screening, non-small cell lung cancer EKVX; format: cell-based, human; conditions: 10 μM
OVCAR-4 = assay: NCI one-dose screening, ovarian cancer OVCAR-4; format: cell-based, human; conditions: 10 μM
IGROV1 = assay: NCI one-dose screening, ovarian cancer IGROV1; format: cell-based, human; conditions: 10 μM
U251 = assay: NCI one-dose screening, CNS cancer U251; format: cell-based, human; conditions: 10 μM
SNB-19 = assay: NCI one-dose screening, CNS cancer SNB-19; format: cell-based, human; conditions: 10 μM
K562cell line = assay: NCI one-dose screening, leukemia K562; format: cell-based, human; conditions: 10 μM
HOP-62 = assay: NCI one-dose screening, non-small cell lung cancer HOP-62; format: cell-based, human; conditions: 10 μM
LOX IMVI = assay: NCI one-dose screening, melanoma LOX IMVI; format: cell-based, human; conditions: 10 μM
HCT-15 = assay: NCI one-dose screening, colon cancer HCT-15; format: cell-based, human; conditions: 10 μM
SF-539 = assay: NCI one-dose screening, CNS cancer SF-539; format: cell-based, human; conditions: 10 μM
DU145 = assay: NCI one-dose screening, prostate cancer DU145; format: cell-based, human; conditions: 10 μM
PRMI-8226 cell line = assay: NCI one-dose screening, leukemia PRMI-8226; format: cell-based, human; conditions: 10 μM
SK-OV-3 = assay: NCI one-dose screening, ovarian cancer SK-OV-3; format: cell-based, human; conditions: 10 μM
PC-3 = assay: NCI one-dose screening, prostate cancer PC-3; format: cell-based, human; conditions: 10 μM
HCC-2998 = assay: NCI one-dose screening, colon cancer HCC-2998; format: cell-based, human; conditions: 10 μM
BT-549 = assay: NCI one-dose screening, breast cancer BT-549; format: cell-based, human; conditions: 10 μM
OVCAR-3 = assay: NCI one-dose screening, ovarian cancer OVCAR-3; format: cell-based, human; conditions: 10 μM
NCI-H226 = assay: NCI one-dose screening, non-small cell lung cancer NCI-H226; format: cell-based, human; conditions: 10 μM
MDA-MB-231/ATCC = assay: NCI one-dose screening, breast cancer MDA-MB-231/ATCC; format: cell-based, human; conditions: 10 μM
MOLT-4 = assay: NCI one-dose screening, leukemia MOLT-4; format: cell-based, human; conditions: 10 μM
SNB-75 = assay: NCI one-dose screening, CNS cancer SNB-75; format: cell-based, human; conditions: 10 μM
NCl/ADR-RES = assay: NCI one-dose screening, breast cancer NCl/ADR-RES; format: cell-based, human; conditions: 10 μM; listed under Ovarian cancer
HL-60, TB = assay: NCI one-dose screening, leukemia HL-60, TB; format: cell-based, human; conditions: 10 μM
[1] = tested on: PC-3 prostate cancer cell line; assay: SRB assay cell viability, PC-3 prostate cancer cell line; format: cell-based, human; conditions: Homo sapiens, PC-3 prostate cancer cell line, Table II prints no unit, μM printed, read-out: SRB assay: 50% inhibition of cancer cell proliferation of sample concentration (IC50) of PC-3 prostate cancer cell line
786-O = assay: NCI one-dose screening, renal cancer 786-O; format: cell-based, human; conditions: 10 μM
SF-295 = assay: NCI one-dose screening, CNS cancer SF-295; format: cell-based, human; conditions: 10 μM
HS 578-T = assay: NCI one-dose screening, breast cancer HS 578-T; format: cell-based, human; conditions: 10 μM; Breast cancer
MCF7 = assay: NCI one-dose screening, breast cancer MCF7; format: cell-based, human; conditions: 10 μM
A549/ATCC = assay: NCI one-dose screening, non-small cell lung cancer A549/ATCC; format: cell-based, human; conditions: 10 μM
CCRF-CEM = assay: NCI screening platform one-dose single concentration screening, leukemia CCRF-CEM; format: cell-based, human; conditions: 10 μM
UACC-62 = assay: NCI one-dose screening, melanoma UACC-62; format: cell-based, human; conditions: 10 μM
SK-MEL-2 = assay: NCI one-dose screening, melanoma SK-MEL-2; format: cell-based, human; conditions: 10 μM
SR = assay: NCI one-dose screening, leukemia SR; format: cell-based, human; conditions: 10 μM
NCI-H460 = assay: NCI one-dose screening, non-small cell lung cancer NCI-H460; format: cell-based, human; conditions: 10 μM
NCI-H322M = assay: NCI one-dose screening, non-small cell lung cancer NCI-H322M; format: cell-based, human; conditions: 10 μM; Non-small cell lung cancer
[2] = NCI one-dose screening, renal cancer A489; format: cell-based, human; conditions: 10 μM
UACC-257 = assay: NCI one-dose screening, melanoma UACC-257; format: cell-based, human; conditions: 10 μM
OVCAR-8 = assay: NCI one-dose screening, ovarian cancer OVCAR-8; format: cell-based, human; conditions: 10 μM
SF-268 = assay: NCI one-dose screening, CNS cancer SF-268; format: cell-based, human; conditions: 10 μM
COLO 205 = assay: NCI one-dose screening, colon cancer COLO 205; format: cell-based, human; conditions: 10 μM
human tumor cell lines = assay: NCI one-dose screening, Mean / Delta / Range of growth percent over all tested cell lines; format: cell-based; conditions: 10 μM
MDA-MB-468 = assay: NCI one-dose screening, breast cancer MDA-MB-468; format: cell-based, human; conditions: 10 μM
SK-MEL-28 = assay: NCI one-dose screening, melanoma SK-MEL-28; format: cell-based, human; conditions: 10 μM
T-47D = assay: NCI one-dose screening, breast cancer T-47D; format: cell-based, human; conditions: 10 μM

Q: Which melting point does the source give for `O=C1c2ccccc2C(=O)c2c1cc(N1CCOCC1)c1nsnc21` [C10, 4-morpholino-anthra[2,1-c][1,2,5] thiadiazol-6,11-dione] here?
A: 259 to 260 °C

Q: And the “Growth Percent NCI-H23” value (NCI-H23)?
A: 39.65%

Q: What about the “Growth Percent TK-10” value (TK-10) of the same compound?
A: 131.28%

Q: What about the “Growth Percent M14” value (M14) of the same compound?
A: 75.06%

Q: What about the “Growth Percent UO-31” value (UO-31) of the same compound?
A: 53.93%

Q: And the “Growth Percent CAKI-1” value (CAKI-1)?
A: 61.73%

Q: And the “Growth Percent NCI-H522” value (NCI-H522)?
A: 79.03%

Q: What about the “Growth Percent HOP-92” value (HOP-92) of the same compound?
A: 90.59%

Q: And the “Growth Percent MALME-3M” value (MALME-3M)?
A: 61.99%

Q: And the “Growth Percent RXF 393” value (RXF, 393)?
A: 98.14%

Q: And the “Growth Percent SN12C” value (SN12C)?
A: 71.73%

Q: And the “Growth Percent SK-MEL-5” value (SK-MEL-5)?
A: 15.98%

Q: And the “Growth Percent HCT-116” value (HCT-116)?
A: 18.89%

Q: What about the “Growth Percent MDA-MB-435” value (MDA, -MB-435) of the same compound?
A: 0.52%

Q: And the “Growth Percent KM12” value (KM12)?
A: 83.91%

Q: And the “Growth Percent EKVX” value (EKVX)?
A: 84.52%

Q: What about the “Growth Percent OVCAR-4” value (OVCAR-4) of the same compound?
A: 28.69%

Q: What about the “Growth Percent IGROV1” value (IGROV1) of the same compound?
A: 54.88%

Q: What about the “Growth Percent U251” value (U251) of the same compound?
A: 59.35%

Q: And the “Growth Percent SNB-19” value (SNB-19)?
A: 84.82%

Q: What about the “Growth Percent K562” value (K562cell line) of the same compound?
A: 48.27%

Q: What about the “Growth Percent HOP-62” value (HOP-62) of the same compound?
A: 60.63%

Q: What about the “Growth Percent LOX IMVI” value (LOX IMVI) of the same compound?
A: 13.57%

Q: What about the “Growth Percent HCT-15” value (HCT-15) of the same compound?
A: 55.97%

Q: And the “Growth Percent SF-539” value (SF-539)?
A: 88.62%

Q: And the “Growth Percent DU145” value (DU145)?
A: 68.98%

Q: What about the “Growth Percent RPMI-8226” value (PRMI-8226 cell line) of the same compound?
A: 61.17%

Q: And the “Growth Percent SK-OV-3” value (SK-OV-3)?
A: 104.65%

Q: And the “Growth Percent PC-3” value (PC-3)?
A: 56.59%

Q: And the “Growth Percent HCC-2998” value (HCC-2998)?
A: 107.48%

Q: And the “Growth Percent BT-549” value (BT-549)?
A: 93.78%

Q: What about the “Growth Percent OVCAR-3” value (OVCAR-3) of the same compound?
A: 6.64%

Q: What about the “Growth Percent NCI-H226” value (NCI-H226) of the same compound?
A: 87.42%

Q: What about the “Growth Percent MDA-MB-231/ATCC” value (MDA-MB-231/ATCC) of the same compound?
A: 39.16%

Q: What about the “Growth Percent MOLT-4” value (MOLT-4) of the same compound?
A: 47.64%

Q: And the “Growth Percent SNB-75” value (SNB-75)?
A: 51.11%

Q: And the “Growth Percent NCI/ADR-RES” value (NCl/ADR-RES)?
A: 43.58%

Q: What about the “Growth Percent HL-60(TB)” value (HL-60, TB) of the same compound?
A: 66.73%

Q: And the IC50 [1]?
A: 3.75 µM

Q: And the “Growth Percent 786-0” value (786-O)?
A: 109.16%

Q: What about the “Growth Percent SF-295” value (SF-295) of the same compound?
A: 95.84. Percent

Q: What about the “Growth Percent HS 578T” value (HS 578-T) of the same compound?
A: 88.35%

Q: And the “Growth Percent MCF7” value (MCF7)?
A: 55.12%

Q: And the “Growth Percent A549/ATCC” value (A549/ATCC)?
A: 100.58%

Q: And the “Growth Percent CCRF-CEM” value (CCRF-CEM)?
A: 48.31%

Q: What about the “Growth Percent UACC-62” value (UACC-62) of the same compound?
A: 62.43%

Q: What about the “Growth Percent SK-MEL-2” value (SK-MEL-2) of the same compound?
A: 88.38%

Q: And the “Growth Percent SR” value (SR)?
A: 68.92%

Q: What about the “Growth Percent NCI-H460” value (NCI-H460) of the same compound?
A: 88.64%

Q: And the “Growth Percent NCI-H322M” value (NCI-H322M)?
A: 98.00%

Q: And the “Growth Percent A498” value [2]?
A: 88.30%

Q: And the “Growth Percent UACC-257” value (UACC-257)?
A: 79.36%

Q: And the “Growth Percent OVCAR-8” value (OVCAR-8)?
A: 43.29%

Q: And the “Growth Percent SF-268” value (SF-268)?
A: 75.83%

Q: What about the “Growth Percent COLO 205” value (COLO 205) of the same compound?
A: 104.19%

Q: What about the “Growth Percent Delta” value (human tumor cell lines; delta over all cell lines) of the same compound?
A: 67.45%

Q: What about the “Growth Percent Mean” value (human tumor cell lines; mean over all cell lines) of the same compound?
A: 67.97%

Q: And the “Growth Percent Range” value (human tumor cell lines; range over all cell lines)?
A: 130.76%

Q: And the “Growth Percent MDA-MB-468” value (MDA-MB-468)?
A: 45.59%

Q: What about the “Growth Percent SK-MEL-28” value (SK-MEL-28) of the same compound?
A: 104.55%

Q: What about the “Growth Percent T-47D” value (T-47D) of the same compound?
A: 60.04%
